Results taken from patent US5446130A, “Parathyroid hormone antagonists” (Mitsubishi Kasei Corporation, priority 1990, dated 1995).

Test system: output of cAMP produced by 5×10^-9 M hPTH (1-34) in cultured mouse osteoblast MC3T3-E1
Assay: Determination of PTH antagonism: inhibition of cAMP output induced by hPTH (1-34) in cultured mouse osteoblast MC3T3-E1
Format: cell-based
Procedure: PTH antagonism of the PTHrP derivatives (I) of the present invention was determined on the basis of the output of cAMP, using cultured mouse osteoblast MC3T3-E1.
To a multiwell-culture plate of 12-well were inoculated 1×10^5 cells/well of the cultured cells, and the plate was incubated at 37° C. under 95% air-5% CO2 atmosphere for 3 days after addition of α-modified MEM containing 10% semi-fetal bovine serum as a medium. Then, the medium was exchanged with α-modified MEM containing 1% bovine serum albumin and the cultured cells were incubated for 6 hours. The medium was replaced by α-modified MEM containing various concentrations of the compound of the present invention, 5×10^-9 M hPTH (1-34), 1% bovine serum albumin and 1 mM isobutylmethylxanthin, and the mixture was incubated for 1 hour. The medium was separated from the cells, and the medium was used as a sample for assaying cAMP. The cells were shaken with 90% n-propyl alcohol to extract cAMP according to Yamaguchi et al., J. Biol. Chem., 262, 7711-7718 (1987) for preparing another sample.
Assay of cAMP was performed using a commercially available cAMP-radioimmunoassay kit. […] Compound numbers in the tables correspond to those in Table 2.

[1] = Table 3, 50% inhibition of cAMP output by 5×10^-9 M hPTH (1-34), ratio to control [Tyr34]-hPTH (3-34)-NH2 = 1
[2] = Table 4, 50% inhibition of cAMP output by 5×10^-9 M hPTH (1-34), ratio to control Compound No. 15 = 1

Structure (SMILES) | IC50 Ratio [1] | IC50 Ratio [2] | further results
CC[C@H](C)[C@H](NC(=O)[C@H](CC(C)C)NC(=O)[C@H](Cc1c[nH]cn1)NC(=O)[C@H](Cc1c[nH]cn1)NC(=O)[C@H](CC(C)C)NC(=O)[C@H](Cc1ccccc1)NC(=O)[C@H](Cc1ccccc1)NC(=O)[C@H](CCCNC(=N)N)NC(=O)[C@H](CCCNC(=N)N)NC(=O)[C@H](CCCNC(=N)N)NC(=O)[C@H](CC(C)C)NC(=O)[C@H](CC(=O)O)NC(=O)[C@H](CCC(N)=O)NC(=O)[C@@H](NC(=O)[C@H](CO)NC(=O)[C@H](CCCCN)NC(=O)CNC(=O)[C@H](CC(C)C)NC(=O)[C@H](CCC(N)=O)NC(=O)[C@H](Cc1c[nH]cn1)NC(=O)[C@H](CCSC)NC(=O)[C@H](CC(C)C)NC(=O)[C@H](CCC(N)=O)NC(=O)[C@@H](NC(=O)[C@H](CCC(=O)O)NC(=O)[C@@H](N)CO)[C@@H](C)CC)[C@@H](C)CC)C(=O)N[C@@H](C)C(=O)N[C@@H](CCC(=O)O)C(=O)N[C@H](C(=O)N[C@@H](Cc1c[nH]cn1)C(=O)N[C@H](C(=O)N[C@@H](C)C(N)=O)[C@@H](C)O)[C@@H](C)CC [Compound No. 2] | 0.003 |  | 
CC[C@H](C)[C@H](NC(=O)[C@H](CC(C)C)NC(=O)[C@H](Cc1c[nH]cn1)NC(=O)[C@H](Cc1c[nH]cn1)NC(=O)[C@H](CC(C)C)NC(=O)[C@H](Cc1ccccc1)NC(=O)[C@H](Cc1ccccc1)NC(=O)[C@H](CCCNC(=N)N)NC(=O)[C@H](CCCNC(=N)N)NC(=O)[C@H](CCCNC(=N)N)NC(=O)[C@H](CC(C)C)NC(=O)[C@H](CC(=O)O)NC(=O)[C@H](CCC(N)=O)NC(=O)[C@@H](NC(=O)[C@H](CO)NC(=O)[C@H](CCCCN)NC(=O)CNC(=O)[C@H](CCCCN)NC(=O)[C@H](CC(=O)O)NC(=O)[C@H](Cc1c[nH]cn1)NC(=O)[C@H](CCSC)NC(=O)[C@H](CC(C)C)NC(=O)[C@H](CCC(N)=O)NC(=O)[C@@H](N)Cc1ccccc1)[C@@H](C)CC)C(=O)N[C@@H](C)C(=O)N[C@@H](CCC(=O)O)C(=O)N[C@H](C(=O)N[C@@H](Cc1c[nH]cn1)C(=O)N[C@H](C(=O)N[C@@H](C)C(N)=O)[C@@H](C)O)[C@@H](C)CC [Compound No. 8] | 0.026 |  | 
CC[C@H](C)[C@H](NC(=O)[C@H](CC(C)C)NC(=O)[C@H](Cc1c[nH]cn1)NC(=O)[C@H](Cc1c[nH]cn1)NC(=O)[C@H](CC(C)C)NC(=O)[C@H](Cc1ccccc1)NC(=O)[C@H](Cc1ccccc1)NC(=O)[C@H](CCCNC(=N)N)NC(=O)[C@H](CCCNC(=N)N)NC(=O)[C@H](CCCNC(=N)N)NC(=O)[C@H](CC(C)C)NC(=O)[C@H](CC(=O)O)NC(=O)[C@H](CCC(N)=O)NC(=O)[C@@H](NC(=O)[C@H](CO)NC(=O)[C@H](CCCCN)NC(=O)CNC(=O)[C@H](CCCCN)NC(=O)[C@H](CC(=O)O)NC(=O)[C@H](Cc1c[nH]cn1)NC(=O)[C@H](CCSC)NC(=O)[C@H](CC(C)C)NC(=O)[C@H](CCC(N)=O)NC(=O)[C@@H](N)CC(C)C)[C@@H](C)CC)C(=O)N[C@@H](C)C(=O)N[C@@H](CCC(=O)O)C(=O)N[C@H](C(=O)N[C@@H](Cc1c[nH]cn1)C(=O)N[C@H](C(=O)N[C@@H](C)C(N)=O)[C@@H](C)O)[C@@H](C)CC [Compound No. 9] |  | 1.02 | 
CCCCCCCCCCCCCC(=O)N[C@@H](CCC(N)=O)C(=O)N[C@@H](CC(C)C)C(=O)N[C@@H](CCSC)C(=O)N[C@@H](Cc1c[nH]cn1)C(=O)N[C@@H](CC(=O)O)C(=O)N[C@@H](CCCCN)C(=O)NCC(=O)N[C@@H](CCCCN)C(=O)N[C@@H](CO)C(=O)N[C@H](C(=O)N[C@@H](CCC(N)=O)C(=O)N[C@@H](CC(=O)O)C(=O)N[C@@H](CC(C)C)C(=O)N[C@@H](CCCNC(=N)N)C(=O)N[C@@H](CCCNC(=N)N)C(=O)N[C@@H](CCCNC(=N)N)C(=O)N[C@@H](Cc1ccccc1)C(=O)N[C@@H](Cc1ccccc1)C(=O)N[C@@H](CC(C)C)C(=O)N[C@@H](Cc1c[nH]cn1)C(=O)N[C@@H](Cc1c[nH]cn1)C(=O)N[C@@H](CC(C)C)C(=O)N[C@H](C(=O)N[C@@H](C)C(=O)N[C@@H](CCC(=O)O)C(=O)N[C@H](C(=O)N[C@@H](Cc1c[nH]cn1)C(=O)N[C@H](C(=O)N[C@@H](C)C(N)=O)[C@@H](C)O)[C@@H](C)CC)[C@@H](C)CC)[C@@H](C)CC [Compound No. 10] |  | 2.24 | 
CCCC[C@H](NC(=O)[C@H](CCC(N)=O)NC(=O)[C@@H](N)[C@@H](C)CC)C(=O)N[C@@H](CCSC)C(=O)N[C@@H](Cc1c[nH]cn1)C(=O)N[C@@H](CC(=O)O)C(=O)N[C@@H](CCCCN)C(=O)NCC(=O)N[C@@H](CCCCN)C(=O)N[C@@H](CO)C(=O)N[C@H](C(=O)N[C@@H](CCC(N)=O)C(=O)N[C@@H](CC(=O)O)C(=O)N[C@@H](CC(C)C)C(=O)N[C@@H](CCCNC(=N)N)C(=O)N[C@@H](CCCNC(=N)N)C(=O)N[C@@H](CCCNC(=N)N)C(=O)N[C@@H](Cc1ccccc1)C(=O)N[C@@H](Cc1ccccc1)C(=O)N[C@@H](CC(C)C)C(=O)N[C@@H](Cc1c[nH]cn1)C(=O)N[C@@H](Cc1c[nH]cn1)C(=O)N[C@@H](CC(C)C)C(=O)N[C@H](C(=O)N[C@@H](C)C(=O)N[C@@H](CCC(=O)O)C(=O)N[C@H](C(=O)N[C@@H](Cc1c[nH]cn1)C(=O)N[C@H](C(=O)N[C@@H](C)C(N)=O)[C@@H](C)O)[C@@H](C)CC)[C@@H](C)CC)[C@@H](C)CC [Compound No. 14] |  | 0.922 | 
CC[C@H](C)[C@H](NC(C)=O)C(=O)N[C@@H](CCC(N)=O)C(=O)N[C@@H](CC(C)C)C(=O)N[C@@H](CCSC)C(=O)N[C@@H](Cc1c[nH]cn1)C(=O)N[C@@H](CC(=O)O)C(=O)N[C@@H](CCCCN)C(=O)NCC(=O)N[C@@H](CCCCN)C(=O)N[C@@H](CO)C(=O)N[C@H](C(=O)N[C@@H](CCC(N)=O)C(=O)N[C@@H](CC(=O)O)C(=O)N[C@@H](CC(C)C)C(=O)N[C@@H](CCCNC(=N)N)C(=O)N[C@@H](CCCNC(=N)N)C(=O)N[C@@H](CCCNC(=N)N)C(=O)N[C@@H](Cc1ccccc1)C(=O)N[C@@H](Cc1ccccc1)C(=O)N[C@@H](CC(C)C)C(=O)N[C@@H](Cc1c[nH]cn1)C(=O)N[C@@H](Cc1c[nH]cn1)C(=O)N[C@@H](CC(C)C)C(=O)N[C@H](C(=O)N[C@@H](C)C(=O)N[C@@H](CCC(=O)O)C(=O)N[C@H](C(=O)N[C@@H](Cc1c[nH]cn1)C(=O)N[C@H](C(=O)N[C@@H](C)C(N)=O)[C@@H](C)O)[C@@H](C)CC)[C@@H](C)CC)[C@@H](C)CC [Compound No. 21] |  | 0.934 | 

Second part, led by results:

IC50 Ratio [1] | IC50 Ratio [2] | Structure (SMILES) | further results
0.003 |  | CC[C@H](C)[C@H](NC(=O)[C@H](CC(C)C)NC(=O)[C@H](Cc1c[nH]cn1)NC(=O)[C@H](Cc1c[nH]cn1)NC(=O)[C@H](CC(C)C)NC(=O)[C@H](Cc1ccccc1)NC(=O)[C@H](Cc1ccccc1)NC(=O)[C@H](CCCNC(=N)N)NC(=O)[C@H](CCCNC(=N)N)NC(=O)[C@H](CCCNC(=N)N)NC(=O)[C@H](CC(C)C)NC(=O)[C@H](CC(=O)O)NC(=O)[C@H](CCC(N)=O)NC(=O)[C@@H](NC(=O)[C@H](CO)NC(=O)[C@H](CCCCN)NC(=O)CNC(=O)[C@H](CC(C)C)NC(=O)[C@H](C)NC(=O)[C@H](Cc1c[nH]cn1)NC(=O)[C@H](CCSC)NC(=O)[C@H](CC(C)C)NC(=O)[C@H](CCC(N)=O)NC(=O)[C@@H](NC(=O)[C@H](CCC(=O)O)NC(=O)[C@@H](N)CO)[C@@H](C)CC)[C@@H](C)CC)C(=O)N[C@@H](C)C(=O)N[C@@H](CCC(=O)O)C(=O)N[C@H](C(=O)N[C@@H](Cc1c[nH]cn1)C(=O)N[C@H](C(=O)N[C@@H](C)C(N)=O)[C@@H](C)O)[C@@H](C)CC [Compound No. 1] | concentration for 50% inhibition as fraction of that of [Tyr^34 ]-hPTH (3-34)-NH2 (relative to [Tyr34]-hPTH (3-34)-NH2): below 1/300; concentration for 50% inhibition as fraction of that of hPTHrP (3-34)-NH2 (relative to hPTHrP (3-34)-NH2): about 1/29
 | 1.17 | CC[C@H](C)[C@H](N)C(=O)N[C@@H](CCC(N)=O)C(=O)N[C@@H](CC(C)C)C(=O)N[C@@H](CCSC)C(=O)N[C@@H](Cc1c[nH]cn1)C(=O)N[C@@H](C)C(=O)N[C@@H](CCCCN)C(=O)NCC(=O)N[C@@H](CCCCN)C(=O)N[C@@H](CO)C(=O)N[C@H](C(=O)N[C@@H](CCC(N)=O)C(=O)N[C@@H](CC(=O)O)C(=O)N[C@@H](CC(C)C)C(=O)N[C@@H](CCCNC(=N)N)C(=O)N[C@@H](CCCNC(=N)N)C(=O)N[C@@H](CCCNC(=N)N)C(=O)N[C@@H](Cc1ccccc1)C(=O)N[C@@H](Cc1ccccc1)C(=O)N[C@@H](CC(C)C)C(=O)N[C@@H](Cc1c[nH]cn1)C(=O)N[C@@H](Cc1c[nH]cn1)C(=O)N[C@@H](CC(C)C)C(=O)N[C@H](C(=O)N[C@@H](C)C(=O)N[C@@H](CCC(=O)O)C(=O)N[C@H](C(=O)N[C@@H](Cc1c[nH]cn1)C(=O)N[C@H](C(=O)N[C@@H](C)C(N)=O)[C@@H](C)O)[C@@H](C)CC)[C@@H](C)CC)[C@@H](C)CC [Compound No. 17] | 
 | 1.97 | CC[C@H](C)[C@H](N)C(=O)N[C@@H](CCC(N)=O)C(=O)N[C@@H](CC(C)C)C(=O)N[C@@H](CCSC)C(=O)N[C@@H](Cc1c[nH]cn1)C(=O)N[C@@H](C)C(=O)N[C@@H](CC(C)C)C(=O)NCC(=O)N[C@@H](CCCCN)C(=O)N[C@@H](CO)C(=O)N[C@H](C(=O)N[C@@H](CCC(N)=O)C(=O)N[C@@H](CC(=O)O)C(=O)N[C@@H](CC(C)C)C(=O)N[C@@H](CCCNC(=N)N)C(=O)N[C@@H](CCCNC(=N)N)C(=O)N[C@@H](CCCNC(=N)N)C(=O)N[C@@H](Cc1ccccc1)C(=O)N[C@@H](Cc1ccccc1)C(=O)N[C@@H](CC(C)C)C(=O)N[C@@H](Cc1c[nH]cn1)C(=O)N[C@@H](Cc1c[nH]cn1)C(=O)N[C@@H](CC(C)C)C(=O)N[C@H](C(=O)N[C@@H](C)C(=O)N[C@@H](CCC(=O)O)C(=O)N[C@H](C(=O)N[C@@H](Cc1c[nH]cn1)C(=O)N[C@H](C(=O)N[C@@H](C)C(N)=O)[C@@H](C)O)[C@@H](C)CC)[C@@H](C)CC)[C@@H](C)CC [Compound No. 18] | 
